Source: patent US8124793B2, “Derivatives of ethylene methanedisulfonate as cancer chemotherapeutic agents” (priority 2007, dated 2012)

Columns and labels:
Assay type in all cases: cell-based
SF-295 = experiment: NCI screen, growth of human tumor cells: CNS Cancer SF-295
Outline: (§1)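 Percent-growth read-out from the NCI cancer cell screen; data annotated by cancer type and molar concentration, ≥60 points per compound.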

human cancer cells = experiment: NCI screen summary over the cancers tested (negative growth of human cancer cells); conditions: cancers with negative growth / cancers tested
Experimental: (§2) In the NCI screening process, each compound was tested and described by a minimum of 60 data points. The test data include, but are not limited to the type of cancer, the molar concentration used in the screen, and the percent growth of the cancer. In some cases, NMR and elemental analysis were used for structural assignment.
The derivatives in the tables are grouped using the same category as in the tables 1-6.

KD488 = experiment: NCI screen, growth of human tumor cells: Lymphoma KD488
SU-DAL-7 = experiment: NCI screen, growth of human tumor cells: Lymphoma SU-DAL-7; conditions: SU-DAL-7, 10^−4 molar
HL-60 (TB) = experiment: NCI screen, growth of human tumor cells: Leukemia HL-60 (TB); conditions: HL-60 (TB) (Leukemia), 10^−4 molar
Experimental: as §2

K562 = experiment: NCI screen, growth of human tumor cells: Leukemia K562; conditions: K562 (Leukemia), 10^−4 molar
Outline: as §1

MOLT-4 = experiment: NCI screen, growth of human tumor cells: Leukemia MOLT-4; conditions: MOLT-4 (Leukemia), 10^−4 molar
Outline: as §1

RPMI-8226 = experiment: NCI screen, growth of human tumor cells: Leukemia RPMI-8226; conditions: RPMI-8226 (Leukemia), 10^−4 molar
Outline: as §1

SR = experiment: NCI screen, growth of human tumor cells: Leukemia SR; conditions: SR
Outline: as §1

EKVX = experiment: NCI screen, growth of human tumor cells: Non-Small Cell Lung EKVX; conditions: EKVX (Non-Small Cell Lung), 10^−4 molar
Outline: as §1

HOP-62 = experiment: NCI screen, growth of human tumor cells: Non-Small Cell Lung HOP-62
Outline: as §1

HOP-18 = experiment: NCI screen, growth of human tumor cells: Non-Small Cell Lung HOP-18; conditions: HOP-18 (Non-Small Cell Lung), 10^−4 molar
Experimental: as §2

HOP-92 = experiment: NCI screen, growth of human tumor cells: Non-Small Cell Lung HOP-92; conditions: HOP-92 (Non-Small Cell Lung), 10^−4 molar
Outline: as §1

NCI-H226 = experiment: NCI screen, growth of human tumor cells: Non-Small Cell Lung NCI-H226; conditions: NCI-H226 (Non-Small Cell Lung), 10^−4 molar
Outline: as §1

NCI-H460 = experiment: NCI screen, growth of human tumor cells: Non-Small Cell Lung NCI-H460; conditions: NCI-H460 (Non-Small Cell Lung), 10^−4 molar
Outline: as §1

NCI-H322M = experiment: NCI screen, growth of human tumor cells: Non-Small Cell Lung NCI-H322M; conditions: NCI-H322M, 10^−4 molar
Experimental: as §2

NCI-H23 = experiment: NCI screen, growth of human tumor cells: Non-Small Cell Lung NCI-H23; conditions: NCI-H23, 10^−4 molar
Outline: as §1

COLO205 = experiment: NCI screen, growth of human tumor cells: Colon Cancer COLO205; conditions: COLO205 (Colon Cancer), 10^−4 molar
Outline: as §1

HCT-116 = experiment: NCI screen, growth of human tumor cells: Colon Cancer HCT-116; conditions: HCT-116, 10^−4 molar
Outline: as §1

HT29 = experiment: NCI screen, growth of human tumor cells: Colon Cancer HT29; conditions: HT29 (Colon Cancer), 10^−4 molar
Outline: as §1

KM12 = experiment: NCI screen, growth of human tumor cells: Colon Cancer KM12; conditions: KM12 (Colon Cancer), 10^−4 molar
Outline: as §1

SF-268 = experiment: NCI screen, growth of human tumor cells: CNS Cancer SF-268; conditions: SF-268 (CNS Cancer), 10^−4 molar
Outline: as §1

SNB-19 = experiment: NCI screen, growth of human tumor cells: CNS Cancer SNB-19; conditions: SNB-19, 10^−4 molar
Outline: as §1

SF-539 = experiment: NCI screen, growth of human tumor cells: CNS Cancer SF-539; conditions: SF-539, 10^−4 molar
Outline: as §1

SNB-75 = experiment: NCI screen, growth of human tumor cells: CNS Cancer SNB-75; conditions: SNB-75 (CNS Cancer), 10^−4 molar
Outline: as §1

M14 = experiment: NCI screen, growth of human tumor cells: Melanoma M14; conditions: M14, 10^−4 molar
Outline: as §1

SK-MEL-2 = experiment: NCI screen, growth of human tumor cells: Melanoma SK-MEL-2; conditions: SK-MEL-2 (Melanoma), 10^−4 molar
Outline: as §1

SK-MEL-28 = experiment: NCI screen, growth of human tumor cells: Melanoma SK-MEL-28; conditions: SK-MEL-28, 10^−4 molar
Outline: as §1

SK-MEL-5 = experiment: NCI screen, growth of human tumor cells: Melanoma SK-MEL-5; conditions: SK-MEL-5, 10^−4 molar
Outline: as §1

UACC-257 = experiment: NCI screen, growth of human tumor cells: Melanoma UACC-257
Outline: as §1

UACC-62 = experiment: NCI screen, growth of human tumor cells: Melanoma UACC-62; conditions: UACC-62 (Melanoma), 10^−4 molar
Outline: as §1

IGROVI = experiment: NCI screen, growth of human tumor cells: Ovarian Cancer IGROVI; conditions: IGROVI (Ovarian Cancer), 10^−4 molar
Outline: as §1

SK-OV-3 = experiment: NCI screen, growth of human tumor cells: Ovarian Cancer SK-OV-3; conditions: SK-OV-3 (Ovarian Cancer), 10^−4 molar
Experimental: as §2

OVCAR-3 = experiment: NCI screen, growth of human tumor cells: Ovarian Cancer OVCAR-3; conditions: OVCAR-3 (Ovarian Cancer), 10^−4 molar
Outline: as §1

OVCAR-5 = experiment: NCI screen, growth of human tumor cells: Ovarian Cancer OVCAR-5
Outline: as §1

OVCAR-8 = experiment: NCI screen, growth of human tumor cells: Ovarian Cancer OVCAR-8; conditions: OVCAR-8 (Ovarian Cancer), 10^−4 molar
Experimental: as §2

RXF-393 = experiment: NCI screen, growth of human tumor cells: Renal Cancer RXF-393; conditions: RXF-393 (Renal Cancer), 10^−4 molar
Outline: as §1

TK-10 = experiment: NCI screen, growth of human tumor cells: Renal Cancer TK-10; conditions: TK-10 (Renal Cancer), 10^−4 molar
Experimental: as §2

SN12C = experiment: NCI screen, growth of human tumor cells: Renal Cancer SN12C; conditions: SN12C (Renal Cancer), 10^−4 molar
Outline: as §1

CAKI-1 = experiment: NCI screen, growth of human tumor cells: Renal Cancer CAKI-1; conditions: CAKI-1 (Renal Cancer), 10^−4 molar
Outline: as §1

UO-31 = experiment: NCI screen, growth of human tumor cells: Renal Cancer UO-31; conditions: UO-31 (Renal Cancer), 10^−4 molar
Outline: as §1

DU-145 = experiment: NCI screen, growth of human tumor cells: Prostate Cancer DU-145; conditions: DV-145, 10^−4 molar
Outline: as §1

MCF 7 = experiment: NCI screen, growth of human tumor cells: Breast Cancer MCF 7; conditions: MCF 7 (Breast Cancer), 10^−4 molar
Outline: as §1

MCF7/ADR-RES = experiment: NCI screen, growth of human tumor cells: Breast Cancer MCF7/ADR-RES; conditions: MCF7/ADR-RES, 10^−4 molar
Outline: as §1

BT-549 = experiment: NCI screen, growth of human tumor cells: Breast Cancer BT-549; conditions: BT-549 (Breast Cancer), 10^−4 molar
Outline: as §1

HS 578T = experiment: NCI screen, growth of human tumor cells: Breast Cancer HS 578T; conditions: HS 578T (Breast Cancer), 10^−4 molar
Outline: as §1

MDA-MB-435 = experiment: NCI screen, growth of human tumor cells: Breast Cancer MDA-MB-435
Outline: as §1

## O=C(c1cccc2ccccc12)C1S(=O)(=O)OCCOS1(=O)=O [NSC 679047, ethylene 1-naphthoylmethanedisulfonate]
SF-295; SF-295, 10^−4 molar
  % Growth: −53%
SF-295; SF-295, 10^−5 molar
  % Growth: −50%
SF-295; SF-295, 10^−6 molar
  % Growth: −54%
SF-295; SF-295, 10^−7 molar
  % Growth: −44%
SF-295; SF-295, 10^−8 molar
  % Growth: 70%
Human cancer cells; 10^−4 M conc.
  Percentage of cancers showing negative growth cancers tested: 10^−4 M conc. = 1/3 = 33%
KD488; KD488, 10^−4 molar
  % Growth: 29%
KD488; KD488, 10^−5 molar
  % Growth: 45%
KD488; KD488, 10^−6 molar
  % Growth: 56%
KD488; KD488, 10^−7 molar
  % Growth: 71%
KD488; KD488, 10^−8 molar
  % Growth: 78%
SU-DAL-7
  % Growth: 42%

## CC=CC(=O)C1(CC2=C(C)C(=O)c3ccccc3C2=O)S(=O)(=O)OCCOS1(=O)=O [NSC 731265]
HL-60 (TB)
  percent of growth of human tumor cells: 2%
K562
  percent of growth of human tumor cells: 11%
MOLT-4
  percent of growth of human tumor cells: 2%
RPMI-8226
  percent of growth of human tumor cells: −40%
SR; 10^−4 molar
  % Growth: 12%
SR; 10^−5 molar
  % Growth: 15%
SR; 10^−6 molar
  % Growth: 57%
EKVX
  percent of growth of human tumor cells: −57%
HOP-62; HOP-62, 10^−4 molar
  % Growth: −80%
HOP-62; HOP-62, 10^−5 molar
  % Growth: 49%
HOP-18
  percent of growth of human tumor cells: −43%
HOP-92
  percent of growth of human tumor cells: −43%
NCI-H226
  percent of growth of human tumor cells: −4%
NCI-H460
  percent of growth of human tumor cells: 5%
NCI-H322M
  % Growth: −80%
NCI-H23
  % Growth: −74%
COLO205
  percent of growth of human tumor cells: −50%
HCT-116
  % Growth: −100%
HT29
  percent of growth of human tumor cells: −6%
KM12
  percent of growth of human tumor cells: −16%
SF-268
  percent of growth of human tumor cells: −49%
SF-295; SF-295 (CNS Cancer), 10^−4 molar
  percent of growth of human tumor cells: −57%
SNB-19
  % Growth: −87%
SF-539
  % Growth: −79%
SNB-75
  percent of growth of human tumor cells: −26%
M14
  % Growth: −86%
SK-MEL-2
  percent of growth of human tumor cells: 15%
SK-MEL-28
  % Growth: −69%
SK-MEL-5
  % Growth: −67%
UACC-257; UACC-257, 10^−4 molar
  % Growth: −87%
UACC-257; UACC-257, 10^−5 molar
  % Growth: 40%
UACC-62
  percent of growth of human tumor cells: −13%
IGROVI
  percent of growth of human tumor cells: 4%
SK-OV-3
  percent of growth of human tumor cells: −61%
OVCAR-3
  percent of growth of human tumor cells: 7%
OVCAR-5; OVCAR-5, 10^−4 molar
  % Growth: −83%
OVCAR-5; OVCAR-5, 10^−5 molar
  % Growth: 43%
OVCAR-5; OVCAR-5, 10^−6 molar
  % Growth: 34%
OVCAR-5; OVCAR-5, 10^−7 molar
  % Growth: 40%
OVCAR-5; OVCAR-5, 10^−8 molar
  % Growth: 63%
OVCAR-8
  percent of growth of human tumor cells: −38%
RXF-393
  percent of growth of human tumor cells: −15%
TK-10
  percent of growth of human tumor cells: −10%
SN12C
  percent of growth of human tumor cells: −17%
CAKI-1
  percent of growth of human tumor cells: −2%
UO-31
  percent of growth of human tumor cells: −10%
DU-145
  % Growth: −78%
MCF 7
  percent of growth of human tumor cells: −8%
MCF7/ADR-RES
  % Growth: −53%
BT-549
  percent of growth of human tumor cells: −54%
HS 578T
  percent of growth of human tumor cells: −18%
MDA-MB-435; MDA-MB-435, 10^−4 molar
  % Growth: −71%
MDA-MB-435; MDA-MB-435, 10^−5 molar
  % Growth: −66%
Human cancer cells; 10^−4 M conc.
  Percentage of cancers showing negative growth cancers tested: 79%
Human cancer cells; 10^−5 M conc.
  Percentage of cancers showing negative growth cancers tested: 20%
